Experimental data reported in ChEMBL document CHEMBL6078688, “Discovery of Novel MyD88 Inhibitor A5S to Alleviate Acute Lung Injury with Favorable Drug-like Properties” (J Med Chem, 2024).
Calls of active or inactive are those of the source. No cut-off for these calls is given here.

Legend:
[1] = Acute toxicity in C57BL/6 mouse assessed as pathological change in heart at 500 mg/kg,po administration measured upto 11 days by hematoxylin and eosin staining based assay; type: organism-based; details: in vivo, 264 h, time < 11 day
[2] = Cmax in Sprague-Dawley rat at 20 mg/kg,po administration measured upto 24 hrs by LC-MS/MS analysis; type: ADME, organism-based; details: in vivo
[3] = Stability of compound in rat serum measured upto 12 hrs; type: ADME, cell-free
Mus musculus [4] = experiment: Antiinflammatory activity in cecal ligation and puncture induced sepsis C57BL/6 mouse model assessed as reduction in IL-6 mRNA level in lung at 20 mg/kg,po administrated with compound for 6 hrs followed by CLP induction and measured after 12 hrs by RT-PCR analysis; type: functional, organism-based; details: time 18.0 hrs
Peritoneal macrophage = experiment: Antiinflammatory activity in LPS-induced mouse Peritoneal macrophage cells assessed as inhibition of IFN-beta mRNA level at 1.25 to 5 uM by RT-PCR analysis; type: functional, cell-based; details: dose 1.25-5 µM
[5] = AUC (0 to infinity) in Sprague-Dawley rat at 1 mg/kg,iv administration measured upto 24 hrs by LC-MS/MS analysis; type: ADME, organism-based; details: in vivo
J774.A1 [6] = experiment: Inhibition of NF-kappaB signalling pathway in LPS-induced mouse J774.A1 cells assessed as downregulation of p65 phosphorylation by Western blotting analysis; type: cell-based
J774.A1 [7] = experiment: Anti-inflammatory activity in LPS-induced mouse J774.A1 cells assessed as inhibition of IL-6 production by ELISA; type: functional, cell-based
J774.A1 [8] = experiment: Inhibition of NF-kappaB signalling pathway in LPS-induced mouse J774.A1 cells assessed as upregulation of IkappaB-alpha expression by Western blotting analysis; type: cell-based
[9] = Acute toxicity in C57BL/6 mouse assessed as pathological change in lung at 500 mg/kg,po administration measured upto 11 days by hematoxylin and eosin staining based assay; type: organism-based; details: in vivo, 264 h, time < 11 day
[10] = biological target: T1, Myeloid differentiation primary response protein MyD88 (Homo sapiens, UniProt Q99836); experiment: Binding affinity to CM5 sensor chip immobilized human MyD88 TIR domain assessed as thermal stabilization at 10 uM incubated for 4 hrs by cellular thermal shift assay
T1 sequence (Q99836 whole entry, the tested form may be a part): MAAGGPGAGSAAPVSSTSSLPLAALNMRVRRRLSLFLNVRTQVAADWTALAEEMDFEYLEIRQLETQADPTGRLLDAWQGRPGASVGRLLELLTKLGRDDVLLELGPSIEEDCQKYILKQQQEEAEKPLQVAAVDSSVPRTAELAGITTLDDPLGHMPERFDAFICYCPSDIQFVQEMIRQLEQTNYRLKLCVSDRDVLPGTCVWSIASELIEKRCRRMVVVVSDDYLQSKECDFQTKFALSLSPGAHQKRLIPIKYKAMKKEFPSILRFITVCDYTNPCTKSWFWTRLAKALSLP

Mus musculus [11] = experiment: Antiinflammatory activity in cecal ligation and puncture induced sepsis C57BL/6 mouse model assessed as reduction in IL-6 level in serum at 20 mg/kg,po administrated with compound for 6 hrs followed by CLP induction and measured after 12 hrs by ELISA; type: functional, organism-based; details: time 18.0 hrs
Mus musculus [12] = experiment: Antiinflammatory activity in cecal ligation and puncture induced sepsis C57BL/6 mouse model assessed as reduction in TNF-alpha mRNA level in lung at 20 mg/kg,po administrated with compound for 6 hrs followed by CLP induction and measured after 12 hrs by RT-PCR analysis; type: functional, organism-based; details: time 18.0 hrs
Mus musculus [13] = experiment: Antiinflammatory activity against LPS induced acute lung injury C57BL/6 mouse model assessed as reduction in total cell count in BALF at 20 mg/kg,po administrated with compound for 30 mins followed by LPS treatment and measured after 6 hrs; type: functional, organism-based; details: time 6.5 hrs
Mus musculus [14] = experiment: Antiinflammatory activity in cecal ligation and puncture induced sepsis C57BL/6 mouse model assessed as reduction in TNF-alpha level in serum at 20 mg/kg,po administrated with compound for 6 hrs followed by CLP induction and measured after 12 hrs by ELISA; type: functional, organism-based; details: time 18.0 hrs
Mus musculus [15] = experiment: Antiinflammatory activity in cecal ligation and puncture induced sepsis C57BL/6 mouse model assessed as reduction in tissue destruction of lung at 20 mg/kg,po administrated with compound for 6 hrs followed by CLP induction and measured after 12 hrs by H and E staining based analysis; type: functional, organism-based; details: time 18.0 hrs
[16] = AUC (0 to t) in Sprague-Dawley rat at 1 mg/kg,iv administration measured upto 24 hrs by LC-MS/MS analysis; type: ADME, organism-based; details: in vivo
[17] = Acute toxicity in C57BL/6 mouse assessed as pathological change in liver at 500 mg/kg,po administration measured upto 11 days by hematoxylin and eosin staining based assay; type: organism-based; details: in vivo, 264 h, time < 11 day
J774.A1 [18] = experiment: Inhibition of MAPK signalling pathway in LPS stimulated mouse J774.A1 cells assessed as downregulation of IRAK4 phosphorylation by Western blotting analysis; type: cell-based
[19] = Tmax in Sprague-Dawley rat at 20 mg/kg,po administration measured upto 24 hrs by LC-MS/MS analysis; type: ADME, organism-based; details: in vivo
[20] = Half life in Sprague-Dawley rat at 1 mg/kg,iv administration measured upto 24 hrs by LC-MS/MS analysis; type: ADME, organism-based; details: in vivo
[21] = biological target: T1, Myeloid differentiation primary response protein MyD88; experiment: Inhibition of FLAG tagged and HA tagged MYD88 (unknown origin) expressed in LPS induced HEK293T cells at 20 uM incubated for 1 hr by coimmunoprecipitation analysis; type: cell-based
Mus musculus [22] = experiment: Antiinflammatory activity against LPS induced acute lung injury C57BL/6 mouse model assessed as reduction in histopathological change in lung at 20 mg/kg,po administrated with compound for 30 mins followed by LPS treatment and measured after 6 hrs by H and E staining based analysis; type: functional, organism-based; details: time 6.5 hrs
[23] = Oral bioavailability in Sprague-Dawley rat at 20 mg/kg administration measured upto 24 hrs by LC-MS/MS analysis; type: ADME, organism-based; details: in vivo
[24] = Acute toxicity in C57BL/6 mouse assessed as pathological change in kidney at 500 mg/kg,po administration measured upto 11 days by hematoxylin and eosin staining based assay; type: organism-based; details: in vivo, 264 h, time < 11 day
[25] = biological target: TLR4-MyD88 (Mus musculus) (UniProt Q9QUK6+P22366); experiment: Inhibition of MYD88/TLR4 protein-protein interaction in LPS-induced mouse J774.A1 cells at 20 uM incubated for 2 hrs by coimmunoprecipitation analysis; type: cell-based
Chain of TLR4-MyD88 (Mus musculus) (P22366 whole entry, looked up): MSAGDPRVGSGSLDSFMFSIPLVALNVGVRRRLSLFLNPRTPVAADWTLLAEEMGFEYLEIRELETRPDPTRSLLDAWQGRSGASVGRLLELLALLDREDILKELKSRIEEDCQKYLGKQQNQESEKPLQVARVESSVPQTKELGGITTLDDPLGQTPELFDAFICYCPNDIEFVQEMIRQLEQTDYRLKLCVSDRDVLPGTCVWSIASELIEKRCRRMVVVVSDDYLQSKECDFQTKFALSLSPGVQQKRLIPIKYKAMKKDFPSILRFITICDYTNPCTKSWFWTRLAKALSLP
Chain of TLR4-MyD88 (Mus musculus) (Q9QUK6 whole entry, looked up): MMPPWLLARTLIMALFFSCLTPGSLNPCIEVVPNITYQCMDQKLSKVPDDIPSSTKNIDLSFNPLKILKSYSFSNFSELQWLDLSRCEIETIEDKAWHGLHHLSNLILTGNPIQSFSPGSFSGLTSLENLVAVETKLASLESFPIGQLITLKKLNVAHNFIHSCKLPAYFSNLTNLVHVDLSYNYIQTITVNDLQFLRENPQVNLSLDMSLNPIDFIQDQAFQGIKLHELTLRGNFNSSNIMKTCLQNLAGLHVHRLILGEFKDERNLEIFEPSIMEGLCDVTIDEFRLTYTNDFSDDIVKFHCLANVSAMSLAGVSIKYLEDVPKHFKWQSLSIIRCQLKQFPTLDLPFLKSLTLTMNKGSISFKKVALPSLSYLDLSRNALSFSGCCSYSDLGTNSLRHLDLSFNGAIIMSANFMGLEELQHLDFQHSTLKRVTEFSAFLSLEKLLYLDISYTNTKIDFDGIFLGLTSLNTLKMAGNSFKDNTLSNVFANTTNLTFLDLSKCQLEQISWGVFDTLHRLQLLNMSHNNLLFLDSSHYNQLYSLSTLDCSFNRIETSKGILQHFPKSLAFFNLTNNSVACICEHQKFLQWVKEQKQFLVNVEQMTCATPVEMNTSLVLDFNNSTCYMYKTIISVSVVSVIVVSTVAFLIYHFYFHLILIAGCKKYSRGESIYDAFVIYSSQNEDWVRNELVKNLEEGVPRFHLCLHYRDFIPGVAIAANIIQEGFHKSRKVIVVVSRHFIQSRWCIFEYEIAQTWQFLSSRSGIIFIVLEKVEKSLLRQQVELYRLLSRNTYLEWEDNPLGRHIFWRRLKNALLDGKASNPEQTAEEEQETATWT

Mus musculus [26] = experiment: Antiinflammatory activity in cecal ligation and puncture induced sepsis C57BL/6 mouse model assessed as reduction in TNF-alpha level in BALF at 20 mg/kg,po administrated with compound for 6 hrs followed by CLP induction and measured after 12 hrs by ELISA; type: functional, organism-based; details: time 18.0 hrs
J774.A1 [27] = experiment: Cytotoxicity against mouse J774.A1 cells at 3 to 12 uM by MTT assay; type: toxicity, cell-based; details: j774.a1, 12 µM, dose 3-12 µM
Mus musculus [28] = experiment: Antiinflammatory activity against LPS induced acute lung injury C57BL/6 mouse model assessed as reduction in IL-6 level in BALF at 20 mg/kg,po administrated with compound for 30 mins followed by LPS treatment and measured after 6 hrs by ELISA; type: functional, organism-based; details: time 6.5 hrs
[29] = Stability of compound in simulated intestinal fluid measured upto 12 hrs; type: physicochemical; details: simulated gi fluid
Mus musculus [30] = experiment: Antiinflammatory activity against LPS induced acute lung injury C57BL/6 mouse model assessed as reduction in TNF-alpha level in serum at 20 mg/kg,po administrated with compound for 30 mins followed by LPS treatment and measured after 6 hrs by ELISA; type: functional, organism-based; details: time 6.5 hrs
[31] = Half life in Sprague-Dawley rat at 20 mg/kg,po administration measured upto 24 hrs by LC-MS/MS analysis; type: ADME, organism-based; details: in vivo
[32] = Cmax in Sprague-Dawley rat at 1 mg/kg,iv administration measured upto 24 hrs by LC-MS/MS analysis; type: ADME, organism-based; details: in vivo
Mus musculus [33] = experiment: Antiinflammatory activity against LPS induced acute lung injury C57BL/6 mouse model assessed as reduction in of leukocytes in alveolar region at 20 mg/kg,po administrated with compound for 30 mins followed by LPS treatment and measured after 6 hrs by immunohistochemical staining based analysis; type: functional, organism-based

O[C@H](COc1ccc(Br)cc1)CN1CCN(Cc2cc3ccccc3[nH]2)CC1
Activity [1]: Non-toxic
Cmax [2]: 320 ng/mL
Stability [3]: Stable
Activity (Mus musculus [4]): Active
Activity (Peritoneal macrophage): inactive
AUC(0-inf) [5]: 698 ng·h/mL
inhibition (J774.A1 [6]): Active
IC50 (J774.A1 [7]): 240 nM
inhibition (J774.A1 [8]): Active
Activity [9]: Non-toxic
Activity [10]: Active
Activity (Mus musculus [11]): Active
Activity (Mus musculus [12]): Active
Activity (Mus musculus [13]): Active
Activity (Mus musculus [14]): Active
Activity (Mus musculus [15]): Active
AUC(0-t) at 24 h [16]: 691 ng·h/mL
Activity [17]: Non-toxic
inhibition (J774.A1 [18]): Active
Tmax [19]: 3.67 h
half-life [20]: 1.39 h
inhibition [21]: Active
Activity (Mus musculus [22]): Active
bioavailability [23]: 20.7%
Activity [24]: Non-toxic
inhibition [25]: Active
Activity (Mus musculus [26]): Active
Activity (J774.A1 [27]): Non-toxic
Activity (Mus musculus [28]): Active
Stability [29]: Stable
Activity (Mus musculus [30]): Active
half-life [31]: 4.44 h
Cmax [32]: 1080 ng/mL
Activity (Mus musculus [33]): Active
